Reference: PMC10777983, “The Optimization of Assay Conditions and Characterization of the Succinic Semialdehyde Dehydrogenase Enzyme of Germinated Tartary Buckwheat” (Foods, 2023)

System: T1, SSADH (succinic semialdehyde dehydrogenase) of germinated Tartary buckwheat
T1 construct: NAD+-dependent (printed EC 1.2.1.79 is the NADP+ class)
Test: NADH formation at […] nm, Lineweaver-Burk
Assay type: biochemical, Fagopyrum tataricum
Conditions: 1 mmol/L EDTA, 20 mmol/L beta-mercaptoethanol, 1 mmol/L PMSF, partially purified enzyme

Km (0.2 mmol/L SSA fixed, PBS pH 8.6, 30 °C) [µM]	Km (2 mmol/L NAD+, 1/15 mol/L PBS pH 8.6 (b78 prints mmol/L), 30 °C) [µM]	Compound
636		NC(=O)c1ccc[n+]([C@@H]2O[C@H](COP(=O)(O)OP(=O)(O)OC[C@H]3O[C@@H](n4cnc5c(N)ncnc54)[C@H](O)[C@@H]3O)[C@@H](O)[C@H]2O)c1 [NAD^+]
	~235	O=CCCC(=O)O [SSA]
